These results are taken from US9119401B2, “Plant glutamine synthetase inhibitors and methods for their identification” (priority 2012, dated 2015).

For assay [1], the system named is recombinant glutamine synthetase from Lotus japonicas. The experiment in a line: Biosynthetic assay for plant glutamine synthetase. The assay is classed as biochemical. The note with it: for effect on plant glutamate synthetase activity (in words): text summary of Table 5, 40 μg/ml. As for the experimental part: The biosynthetic assay for plant glutamine synthetase was carried out as follows. This assay uses following solutions: reaction buffer (pH 6.8, 75 mM HEPES, 300 mM L-glutamic acid, 11 mM NH4Cl, 40 mM MgCl2), recombinant […] GS from Lotus japonicas (Betti et al., 2006) working solution (pH 6.8, 50 mM ATP), reaction quenching and color formation solution (12% w/v L-ascorbic acid in 1 N HCl solution and 2% w/v sodium molybdate in DD H2O), color fixing solution (1% sodium citrate tribasic dehydrate in 1% acetic acid in DD H2O), and blank solution (420 mM EDTA solution).
Commercial herbicide (i.e., glufosinate or DL-Phosphinotricin) was used a positive control. EDTA was used as a negative control. In this experiment, we used the active ingredient(s) in the extracts from Burkholderia Spp. (internal labeled as A396 strain or MBI-206 and/or MBI-010).

A further assay deals with Burkholderia A396. The format is cell-based, Burkholderia sp. A396. The settings on record: for Susceptible: Muller-Hinton medium, 72-hour incubation at 25° C.; for Susceptibility of Burkholderia A396 (in words): Table 2. The procedure:
Antibiotic susceptibility of Burkholderia A396 is tested using antibiotic disks on Muller-Hinton medium as described in PML Microbiological's technical data sheet #535.

The next assay concerns B. cepacia isolates. The settings on record: 366 B. cepacia isolates, Pitt et al., 1996; cited from earlier work.
Assay [2] relates to B. cepacia complex strains isolated from cystic fibrosis patients. The settings on record: of 2,621 B. cepacia complex strains, Zhou et al., 2007; cited from earlier work.
Where [3] appears, read: Table 5, pure compounds of MBI-206 and fractions, 40 μg/ml.

Read-outs that look alike come from different tables or passages of the source.

With `C/C=C1\NC(=O)[C@H]2CSSCC/C=C/[C@H](CC(=O)N[C@H](C(C)C)C(=O)N2)OC(=O)[C@H](C(C)C)NC1=O` [FR901228 (iii), FR901228], the “GS inhibition (%)” value in assay [1] (setting [3]) stood at 57%. Further, in assay [1], the “effect on plant glutamate synthetase activity (in words)” value (shortened to “effect”) is recorded as “inhibitory effect”.

As to `CO/N=C(\C(=O)N[C@@H]1C(=O)N2C(C(=O)O)=C(COC(N)=O)CS[C@H]12)c1ccco1` [Cefuroxime], the Susceptible result with Burkholderia A396 (disk 30 ug) is reported as “−”. Moreover, the “antibiotic resistance of isolates (in words)” value in the assay on B. cepacia isolates is listed as “most of them are resistant”.

For `NC[C@H]1O[C@H](O[C@H]2[C@H](O)[C@@H](O[C@H]3O[C@H](CO)[C@@H](O)[C@H](N)[C@H]3O)[C@H](N)C[C@@H]2N)[C@H](O)[C@@H](O)[C@@H]1O` [Kanamycin], in the assay with Burkholderia A396 (disk 30 ug), the Susceptible entry was “+++”.

Consider `CN(C)[C@@H]1C(O)=C(C(N)=O)C(=O)[C@@]2(O)C(O)=C3C(=O)c4c(O)cccc4[C@@](C)(O)[C@H]3C[C@@H]12` [Tetracycline], for which the Susceptible result in the assay on Burkholderia A396 (disk 30 ug) is “−”.

As to `CC[C@H]1OC(=O)[C@H](C)[C@@H](O[C@H]2C[C@@](C)(OC)[C@@H](O)[C@H](C)O2)[C@H](C)[C@@H](O[C@@H]2O[C@H](C)C[C@H](N(C)C)[C@H]2O)[C@](C)(O)C[C@@H](C)C(=O)[C@H](C)[C@@H](O)[C@]1(C)O` [Erythromycin], the Susceptible entry with Burkholderia A396 (disk 15 ug) is “−”.

Regarding Penicillin, in the assay with Burkholderia A396 (disk 10 ug), the Susceptible entry was “−”.

Take `O=C(N[C@H](CO)[C@H](O)c1ccc([N+](=O)[O-])cc1)C(Cl)Cl` [Chloramphenicol]: the “Susceptibility of Burkholderia A396 (in words)” value (“Susceptibility” below) in the assay with Burkholderia A396 was “susceptible”. In addition, the Susceptible result in the assay on Burkholderia A396 (disk 30 ug) is listed as “++”. In assay [2], the strains resistant is listed as 85% and the strains susceptible was 15%.

On to `CP(=O)(O)CCC(N)C(=O)O` (racemic) [DL-Phosphinotricin], for which the “GS inhibition (%) Plate 1” value in assay [1] (Study #2 (MBI-206), 100 μg/ml) stood at 68.8%. Moreover, the “GS inhibition (%) Plate 2” value in assay [1] (Study #2 (MBI-206), 100 μg/ml) worked out at 71.5%. Besides, the “GS inhibition (%)” value is 70.8% in assay [1] (Table 5, pure compounds of MBI-206 and fractions, 100 μg/ml); 70% in assay [1] (study #1 (MBI-010), 200 μg/ml final concentration); “about 70%” in assay [1] (study #1 (MBI-010), 200 μg/ml final concentration, listed as DL-phosphinotricin).

Regarding `[H]/N=C(/N)N[C@H]1[C@H](O)[C@@H](O)[C@H](O[C@@H]2O[C@@H](C)[C@](O)(C=O)[C@H]2O[C@@H]2O[C@@H](CO)[C@H](O)[C@@H](O)[C@@H]2NC)[C@@H](N/C(N)=N\[H])[C@@H]1O` [Streptomycin], the Susceptible entry in the assay with Burkholderia A396 (disk 10 ug) is “−”.

For the compound `C[C@@H](O)[C@H]1C(=O)N2C(C(=O)O)=C(SCCN=CN)C[C@H]12` [Imipenem], the Susceptible entry with Burkholderia A396 (disk 10 ug) is on record as “+++”.

`CC1(C)S[C@@H]2[C@H](NC(=O)[C@H](N)c3ccccc3)C(=O)N2[C@H]1C(=O)O` [Ampicillin]: in the assay on Burkholderia A396 (disk 10 ug), the Susceptible result was “−”.

`COC(=O)c1nc(CC(C)C)oc1-c1c[nH]c2ccccc12` [Templazole A (i), templazole A]: the “GS inhibition (%)” value in assay [1] (setting [3]) is reported as 30%. Also, the “effect” value in assay [1] is “inhibitory effect”.

Take `CN(C)[C@@H]1C(O)=C(C(N)=O)C(=O)[C@@]2(O)C(O)=C3C(=O)c4c(O)cccc4[C@@](C)(O)[C@H]3[C@H](O)[C@@H]12` [Oxytetracycline]: the Susceptible result in the assay with Burkholderia A396 (disk 30 ug) was “−”.

For `CCN1CCN(C(=O)N[C@@H](C(=O)N[C@@H]2C(=O)N3[C@@H]2SC(C)(C)[C@@H]3C(=O)O)c2ccccc2)C(=O)C1=O` [Piperacillin], in the assay on Burkholderia A396, the “Susceptibility” value is given as “susceptible”. Besides, the Susceptible entry in the assay with Burkholderia A396 (disk 100 ug) was “+++”.

For Gentamicin, in the assay with Burkholderia A396 (disk 10 ug), the Susceptible entry is given as “−”.

For `O=C(O)c1cn(C2CC2)c2cc(N3CCNCC3)c(F)cc2c1=O` [Ciprofloxacin], the “Susceptibility” value in the assay with Burkholderia A396 is “susceptible”. In the assay with Burkholderia A396 (disk 5 ug), the Susceptible entry was “++”. Further, the strains susceptible in assay [2] is listed as 5%. In the assay on B. cepacia isolates, the “antibiotic resistance of isolates (in words)” value is “most of them are resistant”.

On to templazole B [Templazole B (ii)], for which the “GS inhibition (%)” value in assay [1] (setting [3]) turned out to be 46%. Besides, the “effect” value in assay [1] is given as “inhibitory effect”.
